Experimental findings from patent US8673908B2, “Kynurenine production inhibitor” (Kyowa Hakko Kirin Co., Ltd., priority 2008, dated 2014) are described below.

Structures are written as SMILES.

This assay deals with kynurenine production in IFN-γ-treated KATO-III cells. Put plainly: Inhibitory activity on kynurenine production (Test Example 1). Type of assay: cell-based. Conditions: Homo sapiens, IFN-γ treatment, culture for 96 hours, read-out: IC50 value, inhibition of kynurenine production. A digest of the protocol: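 KATO-III human gastric cancer cells (2,000/well, RPMI 1640 + 10% FBS) were cultured with compound and IFN-γ (31.25 ng/mL in the cell suspension), DMSO ≤0.1%, for 96 h at 37 °C, 5% CO2. Kynurenine was read at A480 after TCA at 65 °C and p-dimethylaminobenzaldehyde. Inhibition used IFN-γ-treated and untreated DMSO wells as references.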

What is called IC50 is the concentration that inhibits the measured activity by half.

Turning to `CCCS(=O)(=O)Nc1nc2ccccc2nc1OC(C(F)(F)F)C1(C#N)CCOCC1` (centres unmarked) [Compound 351, N-{3-[2,2,2-trifluoro-1-(4-cyanotetrahydro-2H-pyran-4-yl)-ethoxy]quinoxalin-2-yl}propane-1-sulfonamide], the IC50 was under 1 µM.
For `O=S(=O)(Nc1nc2ccccc2nc1OC(C1CCOCC1)C(F)(F)F)c1ccccc1Cl` (centres unmarked) [Compound 116, 2-chloro-N-{3-[2,2,2-trifluoro-1-(tetrahydro-2H-pyran-4-yl)ethoxy]quinoxalin-2-yl}benzenesulfonamide] the value was under 1 µM.
The result for `COC1(COc2nc3ccccc3nc2NS(=O)(=O)c2ccccc2Cl)CCOCC1` [Compound 247, 2-chloro-N-{3-[(4-methoxytetrahydro-2H-pyran-4-yl)methoxy]-quinoxalin-2-yl}benzenesulfonamide] reads 1 to 10 µM; that for `COc1ccc(COc2nc3cccnc3nc2NS(=O)(=O)c2cccc(Cl)c2Cl)cc1` [Compound 5], 1 to 10 µM.
For `CN(C)C(=O)c1ccc(C(Oc2nc3ccccc3nc2NS(=O)(=O)c2ccccc2Cl)C(F)(F)F)cc1` (centres unmarked) [Compound 63, 2-chloro-N-{3-[2,2,2-trifluoro-1-(4-dimethylcarbamoyl-phenyl)ethoxy]quinoxalin-2-yl}benzenesulfonamide] the value was under 1 µM; for `O=S(=O)(Nc1nc2ccccc2nc1SCc1ccccc1)c1ccccc1Cl` [Compound 221, N-[3-(benzylthio)quinoxalin-2-yl]-2-chlorobenzenesulfonamide], 1 to 10 µM.
Take `CCCS(=O)(=O)Nc1nc2ccccc2nc1OC(C1CCN(C(C)=O)CC1)C(F)(F)F` (centres unmarked) [Compound 330, N-{3-[2,2,2-trifluoro-1-(1-acetylpiperidin-4-yl)ethoxy]-quinoxalin-2-yl}propane-1-sulfonamide]: the half-inhibitory concentration (IC50) was under 1 µM.
As for `O=S(=O)(Nc1nc2ccccc2nc1OC(c1ccc(C(F)(F)F)cc1)C(F)(F)F)c1ccccc1C(F)(F)F` (centres unmarked) [Compound 35, 2-(trifluoromethyl)-N-{3-[2,2,2-trifluoro-1-(4-trifluoromethylphenyl)ethoxy]quinoxalin-2-yl}benzenesulfonamide], the IC50 was under 1 µM.
As for `O=S(=O)(Nc1nc2ccccc2nc1OC(C(F)(F)F)C(F)(F)F)c1ccccc1Cl` [Compound 321, 2-chloro-N-{3-[(1,1,1,3,3,3-hexafluoropropan-2-yl)oxy]-quinoxalin-2-yl}benzenesulfonamide], the IC50 is under 1 µM.
The result for `O=S(=O)(Nc1nc2ccccc2nc1OC(c1cccnc1)C1(F)CCOCC1)c1ccccc1Cl` (centres unmarked) [Compound 78, 2-chloro-N-{3-[4-fluorotetrahydropyran-4-yl(pyridin-3-yl)-methoxy]quinoxalin-2-yl}benzenesulfonamide] reads under 1 µM; that for `Cc1nn(C)c(Cl)c1S(=O)(=O)Nc1nc2ccccc2nc1OC(c1cc2ccccc2n1C)C(F)(F)F` (centres unmarked) [Compound 129, 5-chloro-1,3-dimethyl-N-{3-[2,2,2-trifluoro-1-(1-methyl-1H-indol-2-yl)ethoxy]quinoxalin-2-yl}-1H-pyrazole-4-sulfonamide], under 1 µM.
For `CCC(C)S(=O)(=O)Nc1nc2ccccc2nc1OC(c1cccnc1)C(F)(F)F` (centres unmarked) [Compound 187, N-{3-[2,2,2-trifluoro-1-(pyridin-3-yl)ethoxy]quinoxalin-2-yl}butane-2-sulfonamide] the value was under 1 µM.
For `CCCS(=O)(=O)Nc1nc2ccccc2nc1OC(C(F)(F)F)C1(C)CCN(C(C)=O)CC1` (centres unmarked) [Compound 356, N-{3-[2,2,2-trifluoro-1-(1-acetyl-4-methylpiperidin-4-yl)-ethoxy]quinoxalin-2-yl}propane-1-sulfonamide] the value was under 1 µM; for `O=S(=O)(Nc1nc2ccccc2nc1OC(c1cccc(F)c1)C(F)(F)F)c1ccccc1Cl` (centres unmarked) [Compound 83, 2-chloro-N-{3-[2,2,2-trifluoro-1-(3-fluorophenyl)ethoxy]-quinoxalin-2-yl}benzenesulfonamide], under 1 µM.
For `COc1ccc(C(Oc2nc3ccccc3nc2NS(=O)(=O)c2ccccc2Cl)C(F)(F)F)cn1` (centres unmarked) [Compound 64, 2-chloro-N-{3-[2,2,2-trifluoro-1-(6-methoxypyridin-3-yl)-ethoxy]quinoxalin-2-yl}benzenesulfonamide], the IC50 was under 1 µM.
For `Cc1noc(C)c1S(=O)(=O)Nc1nc2ccccc2nc1OC(c1ccccc1)C(F)(F)F` (centres unmarked) [Compound 185, 3,5-dimethyl-N-[3-(2,2,2-trifluoro-1-phenylethoxy)-quinoxalin-2-yl]isoxazole-4-sulfonamide], the IC50 was under 1 µM.
For `CCCNS(=O)(=O)Nc1nc2ccccc2nc1OC(c1ccc(C#N)cc1)C(F)(F)F` (centres unmarked) [Compound 292, N-{3-[1-(4-cyanophenyl)-2,2,2-trifluoroethoxy]quinoxalin-2-yl}-N′-propyl-sulfuric diamide], the IC50 was under 1 µM.
For `Cc1nn(C)c(Cl)c1S(=O)(=O)Nc1nc2ccccc2nc1OC(c1cccnc1)C(F)(F)F` (centres unmarked) [Compound 141, 5-chloro-1,3-dimethyl-N-{3-[2,2,2-trifluoro-1-(pyridin-3-yl)ethoxy]quinoxalin-2-yl}-1H-pyrazole-4-sulfonamide] the value was under 1 µM.
For the molecule `Cc1ccc(C(Oc2nc3ccccc3nc2NS(=O)(=O)NC2CC2)C(F)(F)F)c[n+]1[O-]` (centres unmarked) [Compound 289, 5-{1-[3-(N-cyclopropylsulfamoylamino)quinoxalin-2-yloxy]-2,2,2-trifluoroethyl}-2-methylpyridine 1-oxide], the IC50 lay in the range of 1 to 10 µM.
Turning to `COC(=O)C(Oc1nc2ccccc2nc1NS(=O)(=O)c1cccc(Cl)c1Cl)c1ccc(C(F)(F)F)cc1` (centres unmarked) [Compound 43, 2,3-dichloro-N-{3-{methoxycarbonyl[4-(trifluoromethyl)-phenyl]methoxy}quinoxalin-2-yl}benzenesulfonamide], the IC50 was under 1 µM.
As to `CCCS(=O)(=O)Nc1nc2ccccc2nc1O[C@@H](C1CCOCC1)C(F)(F)F` [Compound 346, (S)—N-{3-[2,2,2-trifluoro-1-(tetrahydro-2H-pyran-4-yl)-ethoxy]quinoxalin-2-yl}propane-1-sulfonamide], the IC50 was in the range of 1 to 10 µM.
For the molecule `O=S(=O)(Nc1nc2ccccc2nc1OCc1ccc2ccccc2c1)c1cc(Cl)cc(Cl)c1` [Compound 15, 3,5-dichloro-N-{3-[(2-naphthyl)methoxy]quinoxalin-2-yl}-benzenesulfonamide], the IC50 is under 1 µM.
For `Cc1noc(C)c1S(=O)(=O)Nc1nc2ccccc2nc1OC(c1ccc(CN(C)C)cc1)C(F)(F)F` (centres unmarked) [Compound 204, N-{3-[1-(4-((dimethylamino)methyl)phenyl)-2,2,2-trifluoroethoxy]quinoxalin-2-yl}-3,5-dimethylisoxazole-4-sulfonamide], the IC50 is under 1 µM.
The result for `COc1ccc(C(Oc2nc3ccccc3nc2NS(=O)(=O)c2ccccc2Cl)C(F)(F)F)cc1` (centres unmarked) [Compound 40, 2-chloro-N-{3-[2,2,2-trifluoro-1-(4-methoxyphenyl)ethoxy]-quinoxalin-2-yl}benzenesulfonamide] reads under 1 µM; that for `O=S(=O)(Nc1nc2ccncc2nc1OC(c1cccnc1)C(F)(F)F)c1ccccc1Cl` (centres unmarked) [Compound 362, 2-chloro-N-{2-[2,2,2-trifluoro-1-(pyridin-3-yl)ethoxy]-pyrido[3,4-b]pyrazin-2-yl}benzenesulfonamide], 1 to 10 µM; that for `COc1ccccc1S(=O)(=O)Nc1nc2ccccc2nc1OC(c1cccnc1)C(F)(F)F` (centres unmarked) [Compound 158, 2-methoxy-N-{3-[2,2,2-trifluoro-1-(pyridin-3-yl)ethoxy]-quinoxalin-2-yl}benzenesulfonamide], under 1 µM.
`O=S(=O)(Nc1nc2ccccc2nc1OCc1ccc2ccccc2c1)c1cccc2ccccc12` [Compound 11, N-{3-[(2-naphthyl)methoxy]quinoxalin-2-yl}-1-naphthalenesulfonamide]: the IC50 is under 1 µM.
With `O=S(=O)(Nc1nc2ccccc2nc1OCc1ccc2ncccc2c1)c1cccc(Cl)c1Cl` [Compound 24, 2,3-dichloro-N-{3-[(quinolin-6-yl)methoxy]quinoxalin-2-yl}-benzenesulfonamide], the IC50 is under 1 µM.
For `CCCS(=O)(=O)Nc1nc2ccccc2nc1O[C@H](c1cccnc1)C(F)(F)F` [Compound 312, (R)—N-{3-[2,2,2-trifluoro-1-(pyridin-3-yl)ethoxy]-quinoxalin-2-yl}propane-1-sulfonamide] the value was under 1 µM; for `CCCS(=O)(=O)Nc1nc2ccccc2nc1OC(c1cccnc1)C(C)C` (centres unmarked) [Compound 210, N-{3-[2-methyl-1-(pyridin-3-yl)propoxy]quinoxalin-2-yl}-propane-1-sulfonamide], under 1 µM; for `C#CCNS(=O)(=O)Nc1nc2ccccc2nc1OC(c1cccnc1)C(F)(F)F` (centres unmarked) [Compound 274, N-{3-[2,2,2-trifluoro-1-(pyridin-3-yl)ethoxy]quinoxalin-2-yl}-N′-(2-propynyl)-sulfuric diamide], under 1 µM.
The result for `Cc1noc(C)c1S(=O)(=O)Nc1nc2ccccc2nc1OC(c1cncn1C)C(F)(F)F` (centres unmarked) [Compound 171, 3,5-dimethyl-N-{3-[2,2,2-trifluoro-1-(1-methyl-1H-imidazol-5-yl)ethoxy]quinoxalin-2-yl}isoxazole-4-sulfonamide] reads under 1 µM; that for `CC(Oc1nc2ccccc2nc1NS(=O)(=O)c1ccccc1Cl)C(C)(C)C` (centres unmarked) [Compound 231, 2-chloro-N-[3-(3,3-dimethylbutan-2-yloxy)quinoxalin-2-yl]-benzenesulfonamide], 1 to 10 µM.
`O=S(=O)(Nc1nc2ccccc2nc1OC(c1cccnc1)C(F)(F)F)c1cc(Cl)cc(Cl)c1` (centres unmarked) [Compound 152, 3,5-dichloro-N-{3-[2,2,2-trifluoro-1-(pyridin-3-yl)ethoxy]-quinoxalin-2-yl}benzenesulfonamide]: the IC50 was under 1 µM.
The result for `O=S(=O)(Nc1nc2ccccc2nc1OC(c1ccc(CO)cc1)C(F)(F)F)c1ccccc1Cl` (centres unmarked) [Compound 60, 2-chloro-N-{3-[2,2,2-trifluoro-1-(4-hydroxymethylphenyl)-ethoxy]quinoxalin-2-yl}benzenesulfonamide] reads under 1 µM.
